This is an account of results in patent publication US20050249857A1, “Lignan complexes” (priority 2002, published 2005).

Data set [1] in a line: physchem. Particulars: 25 °C, pH 5, aqueous buffer, thermodynamic from solid.
Method: (§1) The samples from the solubility and stability studies were analysed by using the HPLC system which consist of the UV-detector (L-7400), interface module (D-7000), pump (L-7100) and autosampler (L-7250, Merck Hitachi, Japan). Purospher® reversed phase column (RP-18e, 5 μm, 125×4 mm) was used in all chromatographic separations.
(§2) An excess amount of lignan or lignan ester was added to acetate buffer (0.16 M; pH 5.0; ionic strength 0.5) containing various concentrations of γ-CD (0-10%). The suspensions were shaken in the dark (25° C.) for 24 hour and the pH of the suspensions were monitored during the equilibration. The pH of suspensions was adjusted to 5.0 with HCl or NaOH if necessary. After equilibration, the suspensions were filtered through 0.45 μm membrane filters and analysed by HPLC.
A short description of data set [2]: Phase-solubility study of HMR with HP-β-CD. Type of data set: physicochemical. The conditions noted are these: for solubility at 72 h: acetate buffer, 25 °C, thermodynamic from solid, 0.16 M acetate buffer pH 5.0, μ = 0.5, 25° C., equilibration 72 hours. The method, then: The phase solubility studies with HMR was also performed with HP-β-CD (0-10%). In the case of HP-β-CD the equilibration time was 72 hours.

A short description of data set [3]: Chemical stability of HMR in acetate buffer with and without 2% γ-CD. Type of data set: physicochemical. Particulars: for First-order rate constant kobs for chemical degradation / shelf-life t90% for chemical degradation: 0.16 M acetate buffer pH 5.0, 30° C.; for half-life: acetate buffer, pH 5, 0.16 M acetate buffer pH 5.0, 30° C., read-out: half-life t1/2 for chemical degradation (converted). The method, then:
All the solutions were prepared by dissolving 1.5-2.0 mg of HMR into 20 ml of the solutions mentioned above, and the concentration of the remaining HMR was determined at appropriate intervals by HPLC. The pseudo-first order rate constant for overall degradation of HMR was determined from the slopes of the linear semilogarithmic plots of remaining HMR versus time. The results of the stability studies were calculated as an average of three determinations.

The nature of data set [4]: Phase-solubility study with γ-CD (Higuchi and Connors). Particulars: 0.16 M acetate buffer pH 5.0, μ = 0.5, 25° C., equilibration 24 hours.
Method: as §1, §2

≈ marks a conversion by molar mass, not a printed value. Where two headings read alike, the source gives them in different places.

For orientation: solubility means how much of the substance goes into solution per volume. Read a low solubility as little dissolved substance. In data set [1], `COc1cc(C[C@H]2C(=O)OC[C@@H]2[C@H](O)c2ccc(O)c(OC)c2)ccc1O` [HMR, hydroxymatairesinol] gave a solubility at 24 h of 6700 µg/mL (≈ 17.9 mM). In addition, the “effect of HP-β-CD on aqueous solubility” value in data set [2] (HP-β-CD 0-10%, pH 5.0) is reported as “increases aqueous solubility”. For the same compound, the solubility at 72 h in data set [2] (pH 5, aqueous buffer, HP-β-CD 0 g/100 ml) is 14600 µg/mL (≈ 38.9 mM); in data set [2] (pH 5, aqueous with cosolvent or surfactant or cyclodextrin, HP-β-CD 1 g/100 ml) it was 14900 µg/mL (≈ 39.8 mM); in data set [2] (pH 5, aqueous with cosolvent or surfactant or cyclodextrin, HP-β-CD 2 g/100 ml), 14900 µg/mL (≈ 39.9 mM); in data set [2] (pH 5, aqueous with cosolvent or surfactant or cyclodextrin, HP-β-CD 5 g/100 ml) it was 20200 µg/mL (≈ 53.8 mM); in data set [2] (pH 5, aqueous with cosolvent or surfactant or cyclodextrin, HP-β-CD 10 g/100 ml), 26800 µg/mL (≈ 71.7 mM). In addition, the “First-order rate constant kobs for chemical degradation” value in data set [3] (with 2% γ-CD) worked out at 5.71e-05 h⁻¹; in data set [3] (without γ-CD) it was 0.000691 h⁻¹. In addition, the “shelf-life t90% for chemical degradation” value in data set [3] (with 2% γ-CD) is listed as 1845 h; in data set [3] (without γ-CD) it was 152 h. In addition, the results for the half-life in data set [3] (with 2% γ-CD) and in data set [3] (without γ-CD) were 506 days and 41.8 days, respectively. The “increase of chemical stability by 2% γ-CD” value in data set [3] (pH 5.0, with versus without 2% γ-CD) is reported as “about 12 fold”. Further, in data set [3] (presence and absence of 2% γ-CD at pH 5.0), the “kinetics of overall degradation” value is recorded as “followed first-order kinetics”.
Take `COc1cc(C[C@H]2COC(=O)[C@@H]2Cc2ccc(O)c(OC)c2)ccc1O` [MR, matairesinol]: in data set [1], the concentration in solution (solubility at 24 h) was 490 µg/mL (≈ 1.37 mM).
As usually defined, the aqueous solubility is the concentration that dissolves in the medium under given conditions. `CCCC(=O)Oc1ccc(C[C@H]2COC(=O)[C@@H]2Cc2ccc(OC(=O)CCC)c(OC)c2)cc1OC` [MRdiBu, matairesinol dibutyrate]: the aqueous solubility entry in data set [4] (γ-CD 0 g/100 ml) was “—* (concentration is under the detection limit of the HPLC method employed.)”; in data set [4] (γ-CD 1 g/100 ml), “—* (concentration is under the detection limit of the HPLC method employed.)”; in data set [4] (γ-CD 2 g/100 ml) it was 0.87 µg/mL (≈ 0.00174 mM); in data set [4] (γ-CD 5 g/100 ml), 1.21 µg/mL (≈ 0.00243 mM); in data set [4] (γ-CD 10 g/100 ml), 0.84 µg/mL (≈ 0.00168 mM).
In the case of `COc1cc(C[C@@H](CO)[C@H](CO)Cc2ccc(O)c(OC)c2)ccc1O` [SECO, secoisolariciresinol], the aqueous solubility in data set [4] (γ-CD 0 g/100 ml) was 700 µg/mL (≈ 1.93 mM); in data set [4] (γ-CD 1 g/100 ml) it was 1740 µg/mL (≈ 4.8 mM); in data set [4] (γ-CD 2 g/100 ml), 2020 µg/mL (≈ 5.57 mM); in data set [4] (γ-CD 5 g/100 ml), 1780 µg/mL (≈ 4.91 mM); in data set [4] (γ-CD 10 g/100 ml), 390 µg/mL (≈ 1.08 mM).
In the case of hydroxymatairesinol diacetate [HMRdiAc], the aqueous solubility in data set [4] (γ-CD 0 g/100 ml) was found to be 750 µg/mL; in data set [4] (γ-CD 1 g/100 ml) it was 1460 µg/mL; in data set [4] (γ-CD 2 g/100 ml) it was 2070 µg/mL; in data set [4] (γ-CD 5 g/100 ml) it was 940 µg/mL; in data set [4] (γ-CD 10 g/100 ml), 160 µg/mL.
